Assay results from patent US20080241870A1, “Composition For Creating an Artificial Bone Marrow Like Environment and Use Thereof” (NATIONAL CENTRE FOR CELL SCINECES, priority 2005, published 2008).

Key:
Type in all cases: cell-based, human
[1] = test system: CD34+ cells; test: self renewal: CD34+ cell number after 48 hours on ABME; Jagged1 expression
Description: Mesenchyme cells were grown on a sterile 1 cm×1 cm glass coverslip to near confluence and were covered with a treatment medium containing 10 ngml^−1 TGF-β1 and were incubated for 18 hours in a humidified sterile atmosphere and 5% CO2. The coverslips were then washed with PBS, and the ABME thus created were covered with a suspension of 2×10^5 CD34^+ cells in 0.2 ml of IMDM with 20% serum. The cells were washed after one hour and the bound cells were covered with medium with 20% serum containing 0.8% methyl cellulose and growth factors. The change in CD34^+ cell number after 48 hours was monitored with a CD34^+ specific antibody (clone HPCA1, Becton Dickinson, USA).

[2] = test system: CD34+ cells; test: adhesion of CD34+ cells to ABME on coverslips; details: 10 ngml^-1, 18 hours; CD34+/MNC contact 1 hour; vs reference coverslip
Description: Mesenchyme cells were grown on a sterile 1 cm×1 cm glass coverslip to near confluence and were covered with a treatment medium containing 10 ngml^−1 TGF-β1 and were incubated for 18 hours in a humidified sterile atmosphere and 5% CO2. The coverslips were then washed with PBS, and the ABME thus created were covered with a suspension of 2×10^6 MNC or 2×10^5 CD34^+ cells in 0.2 ml of IMDM with 20% serum. After 1 hour at 37° C., the coverslips were washed with PBS and the cells were fixed and stained with a CD34^+ specific antibody (clone HPCA1, Becton Dickinson, USA). The number of CD34^+ cells attached were counted and compared to the number of similar cells that were attached in a parallel reference experiment where TGF-β1 was not used. […] It may be seen from FIGS. 6(d-f) that there is an increased adhesion of CD34^+ cells to mesenchymal cells when mesenchymal cells are treated with TGF-β1.

[3] = test system: HIF1α; test: HIF1α immunostaining of mesenchymal cells; details: immunostaining vs control cells; FIG. 11a
Source text: Mesenchymal cells were processed for ABME formation as per details given in experiment #1 above using a biological modulator namely TGFbeta1. The cells were fixed after the indicated time periods and immuno-stained with an antibody to HIF1α which is a specific transcription factor related to hypoxia.

[4] = test system: mesenchymal cells (ABME) with MNC; test: quantitative hematopoietic colony formation assay for ABME (HCFA-ABME): MNC with hematomodulator-contacted mesenchymal cells
Source text: As described above, the medium for blood cell formation employed may be IMDM with 20% serum and supplemented with interleukins such as IL-lbeta, IL-3, and IL-6, stem cell factor, lineage specific growth factors such as erythropoietin and GM-CSF, G-CSF; and methyl cellulose to the extent of 0.8%, the culture is maintained for 12-14 days under the culture conditions whereby blood cell colonies grow well or form colonies and clearly the growth is visible/distinguishable for further analysis and use. An assay designed in a similar manner to assess quantitative nature of ABME function is referred hereafter as ‘quantitative hematopoietic colony formation assay for ABME (HCFA-ABME)’.
Several experiments were conducted to determine that mesenchymal cells exert direct influence on SPC cell-fate. In one set of experiments, mesenchymal cells were cultured separately and nearly 50,000 of them were exposed to a typical HCFA medium comprising 0.8% methyl cellulose in IMDM and 20-30% serum along with excess amounts of various purified and human specific cytokines and hematopoietic colony stimulating growth factors (from Stem cell Technologies, […], Canada). More specifically, the quantities of hematopoietic growth factors used routinely in HCFA were, 2 International Units per milliliter (2 I.U.ml^−1) of Erythropietin (EPO), 50 nanogram per milliliter (50 ng.ml^−1) of Stem Cell Factor (SCF) and 20 nanogram per milliliter (20 ng/ml^−1) each of Granulocyte-Macrophage-Colony Stimulating Factor (GM-CSF), Granulocyte-Colony Stimulating Factor (G-CSF), Interleukin-1 beta (IL-1β), Interleukin-3 (IL-3) and Interleukin-6 (IL-6) {all growth factors and cytokines are from Stem cell Technologies, Vancouver, Canada,}.
In another set of experiments, 50,000 of the same mesenchymal cells were first mixed with nearly 100,000 MNC, held at 37° C. for at least 30 minutes and were processed for colony formation assays. In several experiments, a consistent improvement in the number and cellularity of the hematopoietic colonies was seen when both these two cell types were mixed compared to a reference where only the cells of MNC were used. The increase was ranging from 1.5 to 10-fold. Thus, the enhancement in colony formation obtained with the use of only mesenchymal cells was highly variable and unpredictable among samples. The fact that hematopoietic colonies formed in increased numbers and cellularity only when MNC and mesenchymal cells were processed together is evidence of a new environment created by the mesenchymal cells in which the SPC present in the MNC were more productive. This increase results in activation of the pre-existing but quiescent SPC, formation of new SPC due to self-renewal, and a combination of both factors.
In order to create ABME, the mesenchymal cells were covered with the contacting medium comprising hematomodulators contained in IMDM with 20% human serum or fetal bovine serum for a desirable period (range 8-24 hours) and removed. The contacted cells were then washed 2 times using the contacting medium (IMDM +20% FCS) without hematomodulators and used as such or after harvesting the mesenchymal cells, which now represent the composition of in vitro ABME. Optionally, ABME cells can be configured on supports that will distribute them in two or more dimensions for better results. A requisite number of MNC/SPC and cells of the ABME are taken and kept together for a suitable duration (range 0.5 to 6 hours) after which they were processed for in vitro hematopoietic colony formation assays or hematopoiesis.
Thus, the inventors undertook 4 sets of experiments: (a) wherein mononuclear cells were exposed to mesenchymal cells without any treatment; (b) wherein MNC were exposed to mesenchymal cells contacted with a biological agent [TGFβ1] […]

Substance: HumanTransforming Growth Factor beta1 [TGFβ1]
- CD34+ cell proliferation ([1]; 10 ngml^-1, 18 hours, CD34+ number after 48 hours, vs no TGFβ1, FIG. 10b): supported more CD34^+ cell proliferation
- Jagged1 amount in ABME ([1]; compared to mesenchyme cells, FIG. 10c): significantly more amounts of the promoter of self renewal, Jagged1
- number of CD34+ cells attached to ABME [2]: significantly more number of CD34^+ cells attached
- HIF1α expression [3]: clear nuclear expression of HIF1α
- efficiency of ABME created ([4]; 1-25 nano gram.ml^-1, mesenchymal cells contacted 8-24 hours): equally efficient ABME
- blood cell colonies formed (number, cellularity) ([4]; MNC exposed to mesenchymal cells contacted with the agent, compared with (A) untreated mesenchymal cells, FIG. 1): greater in number and of higher cellularity than (A)
- colony formation along lineages GEMM, BFU-E and GM ([4]; lineage specific colony formation assay, FIG. 3A, vs control without biological agent): uniformly stimulated
- potency in creating ABME from mesenchymal cells ([4]; used separately): nearly equipotent
